Assay results taken from US5710145A, “Protein kinase C inhibitor” (priority 1996, dated 1998).
Where a name gives a salt, the structure may show the parent alone.

Experiments:
physchem = assay type: physicochemical; conditions: for pH (saturated aq Solution): saturated aqueous solution
Method: The aqueous solubility of each salt was determined by UV analysis (Table II) and compared. […] The high pH observed with the succinate and acetate salt indicated the presence of untitrated free base.

[1] = Thermogravimetric analysis (TGA) of salts; assay type: physicochemical; conditions: for TGA weight loss 20-100° C.: heated 20-100° C.; for TGA weight loss 100-200° C.: heated 100-200° C.
Method: Each salt was analyzed by TGA, DSC and Mettler hot stage microscopy and compared (Table III). […] The samples were also examined by hot stage microscopy using a Mettler hot stage.

[2] = Hygroscopicity of salts at relative humidities; assay type: physicochemical; conditions: for Hygroscopicity, RH 27%: 27% RH; for Hygroscopicity, RH 35%: 35% RH; for Hygroscopicity, RH 65%: 65% RH; for Hygroscopicity, RH 80%: 80% RH
Method: (§1) The salts were examined for hygroscopicity at relative humidities (RH) of 27%, 35%, 65% and 80% and are depicted in Table IV. The samples were subjected to vacuum initially to establish a reference point for the RH data. The amount of water contained in each salt was also determined by Karl-Fisher (coulometric).

[3] = Karl-Fisher (coulometric) water content of salts; assay type: physicochemical
Method: as §1

[4] = Oral bioavailability of HCl and mesylate salts in dogs, single 20 mg/kg dose, cross-over; assay type: in vivo, Male Beagle Dogs
Method: Because the hydrochloride salt is the most common pharmaceutical salt and is specifically disclosed in Heath et al., EP 0 657 458, published on Jun. 14, 1995 (Example 5), a biological comparison of the mesylate and HCl salt was carried out. […] The bioavailability of the salt forms was measured in four Male Beagle Dogs by orally administering a single 20 mg/kg dose of the HCl and the claimed mesylate salt in a 10% acacia suspension. One week washout period was allowed between doses. Doses were administered in a cross-over design (2 dogs/salt/study dog). The plasma concentration of the active compound as well as an active metabolite was monitored. […] This represents an approximately 260% increase in plasma concentration of the compound and the metabolite.
The plasma concentration of the compound as well as the metabolite was also plotted as a function of time during the study. The ratio of the area under the concentration curve (AUC) represents a measure of bioavailability of the compound to the patient. The AUC ratio for the HCl salt and the claimed mesylate was calculated and is depicted in Table VI.

Protein Kinase C = assay: Protein kinase C inhibitor activity / selectivity (Calcium Calmodulin Dependent Protein Kinase, Casein Protein Kinase II, cAMP-Dependent Protein Kinase Catalytic Subunit and Protein-Tyrosine Kinase assays); assay type: biochemical
Method: As previously stated, the compound of the present invention are active as selective Protein Kinase C inhibitors. The activity of compound is disclosed in Heath et al., EP 0 657 458, published on Jun. 14, 1995. The activity was determined in the Calcium Calmodulin Dependent Protein Kinase Assay, Casein Protein Kinase II assay, cAMP-Dependent Protein Kinase Catalytic Subunit assay and the Protein-Tyrosine Kinase assay. […] Conditions recognized in the art include: diabetes mellitus and its complications (including retinopathy, neuropathy and nephropathy), ischemia, inflammation, central nervous system disorders, cardiovascular disease, Alzheimer's disease, dermatological disease and cancer.

Structure (SMILES)	pH (saturated aq Solution) (physchem)	Aqueous solubility (base) (physchem; water)	Aqueous solubility (salt) (physchem; water)	TGA weight loss 20-100° C. [1]	TGA weight loss 100-200° C. [1]	Hygroscopicity, RH 27% [2]	Hygroscopicity, RH 35% [2]	Hygroscopicity, RH 65% [2]	Hygroscopicity, RH 80% [2]	Hygroscopicity, Vacuum [2]	K. F. (Karl-Fisher water) [3]	also measured
CN(C)C[C@@H]1CCn2cc(c3ccccc32)C2=C(C(=O)NC2=O)c2cn(c3ccccc23)CCO1 [Acetate]	7.80	0.9 μg base/mL H2 O	1 μg salt/mL H2 O	0.77 % wt loss	1.44 % wt loss	98.6 wt % initial	99.2 wt % initial	100.2 wt % initial	100.6 wt % initial	99.4 wt % initial	0.3%	
CN(C)C[C@@H]1CCn2cc(c3ccccc32)C2=C(C(=O)NC2=O)c2cn(c3ccccc23)CCO1 [HCl]	4.98	249 μg base/mL H2 O		1.42 % wt loss	0.9 % wt loss	98.2 wt % initial	99.3 wt % initial	100.4 wt % initial	100.6 wt % initial	98.7 wt % initial	1.3%	aqueous solubility (physchem; water): 268 µg/mL
CN(C)C[C@@H]1CCn2cc(c3ccccc32)C2=C(C(=O)NC2=O)c2cn(c3ccccc23)CCO1 [Mesylate, (S)-13-[(dimethylamino)methyl]-10,11,14,15-tetrahydro-4,9:16,21-dimetheno-1H, 13H-dibenzo[E,K]pyrrolo[3,4-H][1,4,13]oxadiazacyclohexadecine-1,3(2H)-dione]	4.69	1460 μg base/mL H2 O		3.97 % wt loss		98.5 wt % initial	99.4 wt % initial	100.7 wt % initial	104.4 wt % initial	99.0 wt % initial	3.6%	effect of chloride on aqueous solubility (physchem): drops markedly with the addition of chloride; effect of pH on aqueous solubility (physchem): drops markedly at either higher or lower pH; pH of optimal aqueous solubility (physchem): 4.0 to 5.0 pH; aqueous solubility (physchem; water): 1760 µg/mL; solubility (physchem; water, pH 4.5, water, aqueous solubility at most preferred pH): 2250 µg/mL; increase in plasma concentration of the compound and the metabolite ([4]; dog, in vivo, po, 20 mg/kg): approximately 260%; plasma concentrations of compound and metabolite vs HCl salt ([4]; each dog, equivalent oral dose): Higher plasma concentrations; IC50 (Protein Kinase C): < 10 µM; activity and isozyme selectivity (Protein Kinase C): active and isozyme selective
CN(C)C[C@@H]1CCn2cc(c3ccccc32)C2=C(C(=O)NC2=O)c2cn(c3ccccc23)CCO1 [Phosphate]	3.78	609 μg base/mL H2 O	736 μg salt/mL H2 O	5.50 % wt loss		98.6 wt % initial	102.6 wt % initial	105.5 wt % initial	106.6 wt % initial	98.2 wt % initial	4.6%	TGA weight loss 20-100° C. ([1]; listed as phosphate): 5.50 % wt loss; hygroscopicity ranking ([2]; vacuum to 80% RH): most hygroscopic
CN(C)C[C@@H]1CCn2cc(c3ccccc32)C2=C(C(=O)NC2=O)c2cn(c3ccccc23)CCO1 [Succinate]	7.72	0.4 μg base/mL H2 O	0.5 μg salt/mL H2 O	0.73 % wt loss	1.90 % wt loss	98.5 wt % initial	99.1 wt % initial	100.0 wt % initial	100.5 wt % initial	99.3 wt % initial	0.2%	
CN(C)C[C@@H]1CCn2cc(c3ccccc32)C2=C(C(=O)NC2=O)c2cn(c3ccccc23)CCO1 [Sulfate]	2.57	12 μg base/mL H2 O	14 μg salt/mL H2 O	5.50 % wt loss		98.4 wt % initial	99.8 wt % initial	100.9 wt % initial	101.9 wt % initial	98.9 wt % initial	4.9%	TGA weight loss 20-100° C. ([1]; listed as sulfate): 5.50 % wt loss
CN(C)C[C@@H]1CCn2cc(c3ccccc32)C2=C(C(=O)NC2=O)c2cn(c3ccccc23)CCO1 [Tartrate]	3.77	54 μg base/mL H2 O	71 μg salt/mL H2 O	5.50 % wt loss		98.2 wt % initial	101.3 wt % initial	103.8 wt % initial	105.4 wt % initial	97.9 wt % initial	5.1%	TGA weight loss 20-100° C. ([1]; listed as tartrate): 5.50 % wt loss
